Assay results reported in patent US9155761B2, “Method for the treatment of cancer” (UNIVERSITY COLLEGE CORK, NATIONAL UNIVERSITY OF IRELAND, …, priority 2009, dated 2015).
Entries after “also recorded” stand apart in the source; their conditions may differ.

How the values were obtained:
OE19 [1] = experiment: Mitochondrial depolarization, JC-1 probe; format: cell-based, human; conditions: 48 hour treatment
Procedure: (§1) Mitochondrial membrane potential was determined using the JC-1 probe (Molecular Probes). In non-apoptotic cells, JC1 accumulates as aggregates in the mitochondria, which stain red (FL2; 590 nm). At the onset of apoptosis, a loss of mitochondrial membrane potential (ΔΨm) releases the aggregated JC1, returning it to its monomeric form, which stains the cytosol green (FL1; 530 nm). Therefore, fluorescence of the JC-1 probe in the FL-2 channel decreases as mitochondrial membrane integrity is lost, while the fluorescence in FL-1 channel increases. Cells were incubated in JC1 (7.5 μg/ml) at 37° C. for 15 mins, and washed prior to analysis by flow cytometry (FACScan, Becton Dickinson). Percentages denote the proportion of cells with depolarised mitochondria following 48 hour incubation with 5-Fluorouracil and represent at least three independent experiments.

OE33 [2] = experiment: Mitochondrial depolarization, JC-1 probe; format: cell-based, human; conditions: 48 hour treatment
Procedure: as §1

KYSE450 = experiment: Mitochondrial depolarization, JC-1 probe; format: cell-based, human; conditions: 48 hour treatment
Procedure: as §1

OE21 [3] = experiment: Mitochondrial depolarization, JC-1 probe; format: cell-based, human; conditions: 48 hour treatment
Procedure: as §1

OE21 [4] = test system: OE21
Procedure: Morphological features of cells treated with 5-fluorouracil (5-FU)/cisplatin, without and with 3-MA, LY294002, Bafilomycin, Lithium chloride, rapamycin or HA14-I were examined by light microscopy. Morphologies of treated cells were examined 24 and 48 hours post treatment, treatment times are referred to in figure legends. Aliquots of vehicle control and drug treated cells were cytospun onto glass slides and stained with Rapi-Diff (Braidwood laboratories, UK). The extent of apoptotic and non-apoptotic cell death was determined by counting the cells in at least three fields of view per slide, with an average of ˜100 cells per field. Apoptotic cell death is characterized by the presence of two or more of the following morphological features: cell shrinkage, chromatin condensation, DNA degradation and fragmentation into ‘apoptotic bodies’, within an intact plasma membrane. Autophagic cell death was identified by clear elevation of cytoplasmic vesicles, loss of cytoplasmic material, pyknosis of the nuclear material and an intact nuclear membrane. Cytospin images are representative of at least three independent experiments.

OE19 [5] = experiment: Monodansylcadaverine (MDC)-labelled vacuoles; format: cell-based, human; conditions: 25 μM
Procedure: (§2) MDC is an autofluorescent weak base that accumulates in acidic lysosomal vacuoles, showing high selectivity for autophagosomes, due to the high level of unhydrolyzed membrane lipids from engulfed organelles, which enhance MDC fluorescence. Cells were incubated with 0.1 mM MDC in PBS at 37° C. for 10 minutes (Biederbick et al., 1995), washed and immediately analyzed by fluorescent microscopy.

OE33 [6] = experiment: Monodansylcadaverine (MDC)-labelled vacuoles; format: cell-based, human; conditions: 25 μM
Procedure: as §2

OE21 [7] = experiment: Monodansylcadaverine (MDC)-labelled vacuoles; format: cell-based, human; conditions: 25 μM
Procedure: as §2

SMILES: O=c1[nH]cc(F)c(=O)[nH]1 [5-FU, 5-fluorouracil]
- mitochondrial depolarization (JC-1) (OE19 [1]): do not show caspase-3 activity or mitochondrial membrane depolarization
- mitochondrial depolarization (JC-1) (OE33 [2]): mitochondrial depolarization
- mitochondrial depolarization (JC-1) (KYSE450): do not show caspase-3 activity or mitochondrial membrane depolarization; also recorded: do not exhibit membrane depolarization
- mitochondrial depolarization (JC-1) (OE21 [3]): significant mitochondrial depolarization
- cell death morphology (OE21 [4]; 5-FU (50 μM) or cisplatin (40 μM), 48 hours): predominantly apoptotic cell death morphology
- autophagic cells as a minor population (OE21 [4]; 5-FU treated OE21 cells (FIG. 1c)): 7%
- MDC staining pattern (OE19 [5]): accumulation of MDC (bright blue punctate staining) throughout the cytoplasm
- MDC staining pattern (OE33 [6]): MDC staining patterns are diffuse
- MDC staining pattern (OE21 [7]): MDC staining patterns are diffuse
